According to PMC6218659, “Structures of DPAGT1 Explain Glycosylation Disease Mechanisms and Advance TB Antibiotic Design” (Cell, 2018):
Values after ≈ are worked out from the molar mass of the structure shown. Read-outs that look alike come from different tables or passages of the source.

Columns and labels:
Mtb H37Rv ATCC27294 = assay: Minimum inhibitory concentrations testing against Mtb; type: cell-based, Mycobacterium tuberculosis; conditions: for MIC: Mycobacterium tuberculosis, 168 h
[1] = tested on: Mtb-infected J774A.1 macrophages; assay: Efficacy against Mtb growing in infected macrophages; conditions: J774A.1 macrophages treated 3 or 7 days
Raji cells = assay: Cell proliferation assay (MTS); type: cell-based, human; conditions: 24 hrs
Method: (§1) In sterile 96-well plate, each well was seeded with ∼1x10^5 cells. The cells are then grown confluent overnight in 100 μl DMEM with 10% FBS. The medium is replenished with DMEM with 2% FBS and added vehicle control or test substance the next day. For test substance in methanol, stock was added to 25 μl of DMEM with 2% FBS or PBS and placed in the laminar flow hood to let the methanol evaporate (about 1-3 hrs). Once the methanol has evaporated, DMEM with 2% FBS was added to final volume of 100 μl of desired test concentration. […] Cells are grown for additional 24 hrs. The cell viability was determined by using Promega CellTiter 96^© AQueous One Solution Cell Proliferation Assay (3-(4,5-dimethylthiazol-2-yl)-5-(3-carboxymethoxyphenyl)-2-(4-sulfophenyl)-2H-tetrazolium, inner salt; MTS) System following the manufacture protocol.

HepG2 cells = assay: Cell proliferation assay (MTS); type: cell-based, human
Method: as §1

HEK293 cells = assay: Cell proliferation assay (MTS); type: cell-based, human
Method: as §1

B. cereus ATCC11778 = assay: Micro-broth dilution and drop plate antimicrobial susceptibility test; type: cell-based, Bacillus cereus
Method: (§2) In a sterile 96-well plate, serial dilutions were made with the test substance to final volume of 50 μl. Inoculum was then prepared in Mueller-Hinton broth to 0.5 McFarland and diluted before adding 50 μl to the well to make ∼1x10^5 CFU/ml. The culture plate was incubated at 35 °C for 20-24 hrs. A positive growth control and sterility wells were also prepared along with the culture wells. Absorbance at OD600 was taken using BMG Labtech SPECTROstar Omega spectrophotometer. MIC is determined by the lowest concentration without growth. IC50 is determined from plotting a dose-response curve, see Data Analysis below. To determine the MBC, using a multi-channel pipette, 1 μl of culture broth was taken from the same 96-well microdilution growth plate and carefully inoculated on surface of MH agar plate. The plate is then incubated for additional 20 hrs. at 35 °C. The MBC value is the lowest concentration without observed growth on the agar.

B. subtilis EC1524 = assay: as above; type: cell-based, Bacillus subtilis
Method: as §2

S. aureus ATCC29219 = assay: as above; type: cell-based; conditions: Staphylococcus aureus
Method: as §2

E. coli ATCC25922 = assay: as above; type: cell-based; conditions: Escherichia coli
Method: as §2

P. aeruginosa ATCC27853 = assay: as above; type: cell-based; conditions: Pseudomonas aeruginosa
Method: as §2

DPAGT1 = target: T1, DPAGT1 (Homo sapiens, UniProt Q9H3H5); assay: Radiolabeled substrate enzyme activity assay; type: biochemical, H. sapiens
T1 construct: H. sapiens DPAGT1 (1-408, N-terminal 6 x HIS tag, TEV cleavage site); 6xHis purification tag with TEV site (N, cleaved yes); made in house; host or cells: Spodoptera frugiperda Sf9 insect cells (baculovirus)
T1 sequence (Q9H3H5 1-408): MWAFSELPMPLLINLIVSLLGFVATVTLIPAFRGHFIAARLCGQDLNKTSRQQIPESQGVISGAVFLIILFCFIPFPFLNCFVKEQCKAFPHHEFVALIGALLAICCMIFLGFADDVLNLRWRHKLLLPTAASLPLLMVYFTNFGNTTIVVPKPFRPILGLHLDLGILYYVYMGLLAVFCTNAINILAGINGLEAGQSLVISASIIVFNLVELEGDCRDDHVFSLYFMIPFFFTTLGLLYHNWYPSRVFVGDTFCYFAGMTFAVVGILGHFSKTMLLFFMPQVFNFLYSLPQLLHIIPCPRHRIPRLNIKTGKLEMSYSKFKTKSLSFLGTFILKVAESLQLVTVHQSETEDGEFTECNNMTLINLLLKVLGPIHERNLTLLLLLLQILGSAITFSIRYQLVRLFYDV
Method: 2 μl of 2 μM DPAGT1 WT or mutant proteins in GFB buffer supplemented with 5mM extra MgCl2, 1% OGNG/CHS/cardiolipin and dolichyl monophosphate was combined with 2 μl of UDP-N-acetyl [1-14C] […] The reaction was terminated by the addition of 6 μl of 100% methanol and immediately transferred onto ice. 1 μl of sample was spotted onto a silica coated TLC plate in triplicate and run with a mobile phase consisting of chloroform, methanol, and water at a 65:25:4 ratio respectively. After the run, the TLC plate was dried thoroughly, wrapped in cling film, incubated with a phosphor imaging substrate for 4 days, then phosphor imaged using a Biorad. The pixel density of the spots corresponding to the hydrophobic product was divided by combined pixel density of the product and the substrate and multiplied by the known concentration of substrate added to ascertain the amount of product formed.

[2] = MTS cell proliferation assay, 24 hrs, highest concentration 400 µg mL-1
[3] = serial 2-fold dilutions (Table S6)
[4] = minimal lethal dose / MIC, 800 μg mL-1 used for >400

## CCCCCCCCCC(=O)N[C@H]1[C@H](O[C@H]2O[C@H](CO)[C@@H](O)[C@H](O)[C@H]2NC(=O)CCCCCCCCC)O[C@H](C[C@@H](O)[C@H]2O[C@@H](n3ccc(=O)[nH]c3=O)[C@H](O)[C@@H]2O)[C@H](O)[C@@H]1O [TUN-10,10, Di-N-decanoyl-tunicamycin]
Mtb H37Rv ATCC27294; read-out: 1-week MIC in 7H9/ADC/Tw
  MIC: 1.2 ± 0.3 µg/mL (≈ 1.37 µM)
Mtb H37Rv ATCC27294; read-out: 1-week MIC in GAST/Fe
  MIC: 0.1 ± 0.1 µg/mL (≈ 0.114 µM)
Mtb H37Rv ATCC27294; read-out: Minimal Inhibitory Concentration, Mtb H37RV a
  MIC: 1.2 µg/mL (≈ 1.37 µM)
Mtb H37Rv ATCC27294; read-out: Minimal Inhibitory Concentration, Mtb H37RV b
  MIC: 0.1 µg/mL (≈ 0.114 µM)
Mtb H37Rv ATCC27294; minimal lethal dose / MIC, 7H9/ADC/Tw, 800 μg mL-1 used for >400
  Relative Therapeutic Index (RTI), Mtb H37RV a: 667
Mtb H37Rv ATCC27294; minimal lethal dose / MIC, GAST/Fe, 800 μg mL-1 used for >400
  Relative Therapeutic Index (RTI), Mtb H37RV b: 8000
[1]; 1 × MIC
  reduction of intracellular bacterial burdens: 1 logs
[1]; 10 × MIC
  reduction of intracellular bacterial burdens: 2 logs
Raji cells
  LD50 values, Raji: 196.17 ± 47.61 µg/mL
HepG2 cells; [2]
  LD50 values, HepG2: N/A (N/A = not available. No or low cytotoxicity observed at highest, saturating concentration tested (400 µg mL-1))
HepG2 cells; [3]
  Minimal Lethal Dose, HepG2: > 400 µg/mL
HEK293 cells; [2]
  LD50 values, HEK293: N/A (N/A = not available. No or low cytotoxicity observed at highest, saturating concentration tested (400 µg mL-1))
HEK293 cells; [3]
  Minimal Lethal Dose, HEK 293: > 400 µg/mL
B. cereus ATCC11778; B. cereus, micro-broth dilution, mean ± SEM (n=3)
  MIC: 0.33 ± 0.11 µg/mL (≈ 0.377 µM)
B. cereus ATCC11778; Bacillus cereus, ATCC11778
  IC50: 0.046 µg/mL (≈ 0.0526 µM)
  MBC: 12.5 µg/mL (≈ 14.3 µM)
  MIC: 0.33 ± 0.11 µg/mL (≈ 0.377 µM)
B. cereus ATCC11778; Bacillus cereus, ATCC 11778 / NRRL11778, read-out: Minimal Inhibitory Concentration, B. cereus NRRL 11778
  MIC: 0.39 µg/mL (≈ 0.446 µM)
B. cereus ATCC11778; [4]
  Relative Therapeutic Index (RTI), B. cereus NRRL 11778: 2050
B. subtilis EC1524; Bacillus subtilis, EC1524
  IC50: 0.12 ± 0.04 µg/mL (≈ 0.137 µM)
  MBC: > 0.39 µg/mL
  MIC: 0.33 ± 0.11 µg/mL (≈ 0.377 µM)
B. subtilis EC1524; Bacillus subtilis, EC1524, read-out: Minimal Inhibitory Concentration, B. subtilis EC1524
  MIC: 0.39 µg/mL (≈ 0.446 µM)
B. subtilis EC1524; [4]
  Relative Therapeutic Index (RTI), B. subtilis EC1524: 2050
S. aureus ATCC29219
  IC50: 49.3 µg/mL (≈ 56.3 µM)
  MBC: 400 µg/mL (≈ 457 µM)
  MIC: 83 ± 29 µg/mL (≈ 94.9 µM)
E. coli ATCC25922
  IC50: 91.6 µg/mL (≈ 105 µM)
  MBC: 400 µg/mL (≈ 457 µM)
  MIC: 330 ± 120 µg/mL (≈ 377 µM)
P. aeruginosa ATCC27853
  IC50: 53.5 µg/mL (≈ 61.1 µM)
  MBC: 400 µg/mL (≈ 457 µM)
  MIC: 83 ± 29 µg/mL (≈ 94.9 µM)

## CCCCCCCC(=O)N[C@H]1[C@H](O[C@H]2O[C@H](CO)[C@@H](O)[C@H](O)[C@H]2NC(C)=O)O[C@H](C[C@@H](O)[C@H]2O[C@@H](n3ccc(=O)[nH]c3=O)[C@H](O)[C@@H]2O)[C@H](O)[C@@H]1O [TUN-8,Ac, N-Octanoyl-N’-acetyl tunicamycin]
DPAGT1; purified DPAGT1 enzyme, Figure 6F
  effect on DPAGT1 catalytic activity: restored inhibitory activity

## N-Acetyl-1-[P’-(3Z,7Z,11Z,15Z,19Z,23Z,27Z,31E,35E,39E,43-undecamethyl-2,6,10,14,18,22,26,30,34,38,42-tetratetracontaundecaenyl) P,P'-dihydrogen diphosphate]-α-d-glucosamine diammonium salt [GlcNAc-PP-Und]
DPAGT1; equimolar to Dol-P and UDP-GlcNAc
  reduction of DPAGT1 activity on adding product analogue: 3 fold
